Results on three molecules are retold here after patent US7709566B2, “Polytetrafluoroethylene aqueous dispersion and its product” (Asahi Glass Company, Limited, priority 2005, dated 2010).

A short description of series [1]: Measurement of 1-octanol/water partition coefficient (LogPOW) by HPLC, OECD Test Guideline 117. The series is classed as physicochemical. The settings on record: for LogPOW: 1-octanol/water, HPLC, OECD Test Guideline 117, column temperature 40° C.; for bioaccumulation potential: judged from the LogPOW value, compared to APFO. Here is the method: In accordance with OECD Test Guideline 117, 1-octanol/water partition coefficient (LogPOW) of a fluorinated emulsifier was measured by using HPLC (high performance liquid chromatography).
Conditions for the measurement were as follows: column: TOSOH ODS-120T column (φ 4.6 mm×250 mm), eluent: acetonitrile/0.6 mass % of HClO4 solution=1/1 (vol/vol %), flow rate: […], sample amount: 300 μL, column temperature: 40° C., and detection light: UV 210 nm (WO2005-42593).
HPLC was carried out on standard substances (heptanoic acid, octanoic acid, nonanoic acid and decanoic acid) having known 1-octanol/water partition coefficients, and a calibration curve was prepared from the respective elution times and octanol/water partition coefficients of the respective standard substances. Based on this calibration curve, a value of partition coefficient (LogPOW) between 1-octanol and water was calculated from the elution time by HPLC of the fluorinated emulsifier.
Further, in general, in order to judge whether or not a chemical substance is apt to be accumulated in a living organism, a testing method for measurement of a partition coefficient (LogPOW) between 1-octanol and water, is stipulated. As the testing method, in addition to “Partition Coefficient (1-octanol/water) Shake Flask Method” as stipulated in OECD test guideline 107 and in Japanese Industrial Standards Z 7260-107 (2000), a HPLC method (high-performance liquid chromatography) as stipulated and published in OECD Test Guideline 117, is used. A compound having a large partition coefficient value has a large tendency for bioaccumulation, and a compound having a small value means a small tendency for bioaccumulation. In a case where the LogPOW value is less than 3.5, it is considered proper to judge that it is not a high-concentration, and bioaccumulation is also considered to be small.

The test system of a further series is small animal. The settings on record: it has been pointed out; cited from earlier work.

As for CF3CF2OCF2CF2OCF2COONH4, in series [1], the LogPOW was 3.13 and the bioaccumulation potential result is listed as “low”.

As for `N.O=C(O)C(F)(OC(F)(F)C(F)(OC(F)(F)C(F)(F)F)C(F)(F)F)C(F)(F)F` (stereo not drawn) [CF3CF2OCF(CF3)CF2OCF(CF3)COONH4], in series [1], the LogPOW is recorded as 4.03; the bioaccumulation potential entry is “high and higher bioaccumulation potential than APFO”.

`N.O=C(O)C(F)(F)C(F)(F)C(F)(F)C(F)(F)C(F)(F)C(F)(F)C(F)(F)F` [CF3(CF2)6COONH4, ammonium perfluorooctanoate]: the “accumulation potential in a body of a small animal” value with small animal is reported as “has an accumulation potential”. In series [1], this molecule registered a LogPOW of 3.67.
